Entries after “also recorded” stand apart in the source; their conditions may differ.
Assays:
VEGFR-I [1] = target: T1, VEGFR-I (Homo sapiens, UniProt P17948); assay: VEGFR-I phosphorylation assay, BT474 cells; type: cell-based; parameters: endogenous in cells; host or cells: BT474 human breast carcinoma cells; details: BT474 breast cancer cells, compared to untreated control, FIG. 11
Protocol: (§1) Confluent porcine aorta endothelial VEGFR-I expressing (PAE-VEGFR-I) cells and BT474 human breast carcinoma cells were cultured in serum-depleted F12 medium for 48 hours. The cells were then preincubated with anti-VEGFR-I antibody clone 18F1 at concentrations ranging from 0.1 to 30 μg/ml for 1 hour followed by stimulating with VEGF or PlGF for 5 minutes at 37° C. The cells were then rinsed with ice-cold PBS and lysed in lysis buffer (50 mM HEPES, 150 mM NaCl, 1% Triton X-100, and 10% glycerol containing 1 mM phenylmethylsulfonyl fluoride, 10 μg/ml aprotinin, 10 μg/ml leupeptin, and 1 mM sodium vanadate). Cell lysates were subjected to SDS-PAGE and transferred onto Immobilon membranes (Millipore Corp. Billerica, Mass.). […]
(§2) Autophosphorylation of the VEGFR-I induced by its ligands and resulting activation of a classical MAPK, extracellular signal-regulated protein kinases 1Z2 (ERK1Z2) and the PBK/Atk downstrean signaling pathways mediate cellular biological responses such as proliferation, motility, survival, and differentiation. The ability of an anti-VEGFR-1 antibody to inhibit phosphorylation of VEGFR-I and activation of ERK1 Z2 and the Akt kinases downstream signaling were determined by using the PAE-VEGFR-I transfectant and BT474 breast carcinoma cells. […]

[2] = target: T2, native VEGFR-I on PAE-VEGFR-I cells (Homo sapiens, UniProt P17948); assay: Flow cytometry analysis, PAE-VEGFR-I cells; type: binding; details: FIG. 7
T2 construct: host or cells: porcine aorta endothelial (PAE) cells
Protocol: Aliquots of 10^6PAE-VEGFR-I cells were harvested from subconfluent cultures and incubated with anti-VEGFR-I antibody clones 6F9, 13G12, F11, and 18F1 in PBS with 1% bovine serum albumin (BSA) and 0.02% sodium azide (staining buffer) for one hour on ice. Aliquots of 10^6DU4475 human breast carcinoma cells were harvested from subconfluent cultures and incubated with anti-VEGFR-1 antibody clone 18F1 in PBS with 1% bovine serum albumin (BSA) and 0.02% sodium azide (staining buffer) for one hour on ice. A matched IgG isotype (Jackson ImmunoResearch, West Grove, Pa.) was used as a negative control. Cells were washed twice with flow buffer and then incubated with a fluorescein isothiocyanate (FITC)-labeled goat anti-human IgG antibody (BioSource International, Camarillo, Calif.) in staining buffer for 30 minutes on ice. Cells were washed as above and analyzed on an Epics XL flow cytometer (Beckman-Coulter, Hialeah, Fla.). Dead cells and debris were eliminated from the analysis on the basis of forward and sideways light scatter. The mean fluorescent intensity units (MFRJ) were calculated as the mean log fluorescence multiplied by the percentage of positive population.

VEGFR-I [3] = target: T1, VEGFR-I; assay: VEGFR-I phosphorylation assay, PAE-VEGFR-I cells; type: cell-based; parameters: host or cells: porcine aorta endothelial (PAE) cells; details: PAE-VEGFR-I transfectant, compared to untreated control, FIG. 10
Protocol: as §1, §2

MDA-MB-231 xenograft = assay: MDA-MB-231 breast tumor xenograft; type: in vivo, mouse
Protocol: Mice in control groups received an equal volume of saline solution. Treatment of animals was continued for the duration of the experiment. Tumors were measured twice each week with calipers. Tumor volumes were calculated using the formula [π/6 (w1×w2×w2)], where “w1” represents the largest tumor diameter and “w2” represents the smallest tumor diameter. […] When tumors reached approximately 200-300 mm^3, mice were randomized by tumor size and divided into treatment groups. Tumor growth was evaluated approximately twice weekly, with tumor volume calculated as π/6* (Length*Width^2), where Length=longest diameter and Width=diameter perpendicular to Length. Tumor dimensions were measured with calipers. T/C % was calculated as 100*(Final Treatment Tumor Volume/Initial Treatment Tumor Volume)/(Final Control Tumor Volume/Initial Control Tumor Volume). […] The effect of treatment on tumor growth was analyzed using repeated measures analysis of variance (RM ANOVA), p<0.05 was considered significant. […] Antibody treatments administered at a constant dose per mouse were administered in a volume of 0.5 mL per mouse. Antibody and cytotoxic treatments administered at a dose proportional to body weight were given in a volume of 10 μL per gram body weight. […] AU treatments were administered i.p. The effect of treatments on tumor growth were analyzed using repeated measures analysis of variance (RM ANOVA), p<0.05 was considered significant.

MDA-MB-231 xenografts = assay: Immunohistochemistry and TUNEL of MDA-MB-231 xenografts; type: in vivo, mouse
Protocol: Paraffin-embedded MDA-MB-231 xenografts were evaluated immunohistochemically for markers of tumor cell proliferation, survival, and apoptosis. Markers of proliferation and survival included Ki-67 (rabbit pAb; Lab Vision Corporation, Fremont, Calif.), phospho-specific p44/42 MAPK (Thr202/Tyr204) (rabbit pAb; Cell Signaling Technology) and phospho-specific Akt (Ser473) (rabbit pAb; Cell Signaling Technology). The EnVision+ System for rabbit antibodies (DAKO Cytomation, Carpenteria, Calif.) was used with 3,3′ diaminobenzidine (DAB) as the chromagen, per kit instructions. After brief counterstaining in Mayer's hematoxylin all sections were dehydrated, cleared and coverslipped using a permanent mounting medium. Tumor apoptosis was assessed by TUNEL assay using ApopTag® Peroxidase In Situ Apoptosis Detection Kit (Chemicon, Temecula, Calif.) per kit instructions. Stained sections were coverslipped with Gelmount (Biomeda, Foster City, Calif.). Positive immunostaining and TUNEL positive […] were analyzed and imaged using an Axioskop light microscope with an Axiocam digital camera (Carl Zeiss, Germany).

[4] = after 1 week, 0.5 mg/dose M-W-F
[5] = after 14 days, 20 mg/kg 2x/week

T1 sequence (P17948 27-1338): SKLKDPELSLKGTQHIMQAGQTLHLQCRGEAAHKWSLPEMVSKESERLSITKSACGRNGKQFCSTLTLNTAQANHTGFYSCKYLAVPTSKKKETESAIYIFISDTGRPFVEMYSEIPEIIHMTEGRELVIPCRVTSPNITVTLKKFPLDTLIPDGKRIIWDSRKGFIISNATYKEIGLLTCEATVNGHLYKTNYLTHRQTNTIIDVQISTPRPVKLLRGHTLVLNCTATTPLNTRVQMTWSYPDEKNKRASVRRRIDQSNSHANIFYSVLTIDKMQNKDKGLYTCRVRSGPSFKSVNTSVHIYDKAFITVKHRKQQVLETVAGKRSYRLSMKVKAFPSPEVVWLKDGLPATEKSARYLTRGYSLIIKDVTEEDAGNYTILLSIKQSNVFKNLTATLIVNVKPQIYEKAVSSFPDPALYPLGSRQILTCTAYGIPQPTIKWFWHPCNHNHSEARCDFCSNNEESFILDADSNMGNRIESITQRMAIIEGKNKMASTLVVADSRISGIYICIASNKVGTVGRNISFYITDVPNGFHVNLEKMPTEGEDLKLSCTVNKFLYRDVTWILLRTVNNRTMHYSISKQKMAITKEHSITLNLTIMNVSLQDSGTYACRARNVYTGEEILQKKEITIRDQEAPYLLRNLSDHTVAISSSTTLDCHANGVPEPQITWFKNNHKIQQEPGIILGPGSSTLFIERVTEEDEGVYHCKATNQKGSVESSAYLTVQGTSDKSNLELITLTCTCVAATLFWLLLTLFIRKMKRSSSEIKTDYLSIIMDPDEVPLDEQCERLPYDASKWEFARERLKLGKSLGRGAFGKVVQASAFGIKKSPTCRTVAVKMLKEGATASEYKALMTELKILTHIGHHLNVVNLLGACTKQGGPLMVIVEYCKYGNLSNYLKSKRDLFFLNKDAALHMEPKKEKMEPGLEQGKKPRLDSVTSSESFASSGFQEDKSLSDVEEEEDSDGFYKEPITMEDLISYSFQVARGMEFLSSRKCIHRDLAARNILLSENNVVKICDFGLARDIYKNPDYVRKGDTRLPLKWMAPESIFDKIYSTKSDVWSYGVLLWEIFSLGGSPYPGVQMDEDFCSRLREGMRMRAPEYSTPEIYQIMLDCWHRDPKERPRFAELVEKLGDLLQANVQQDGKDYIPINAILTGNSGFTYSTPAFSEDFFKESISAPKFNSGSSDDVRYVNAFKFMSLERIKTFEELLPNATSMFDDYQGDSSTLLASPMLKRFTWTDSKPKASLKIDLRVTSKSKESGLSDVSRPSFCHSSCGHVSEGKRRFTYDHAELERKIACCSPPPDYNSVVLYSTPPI
T2 sequence (P17948 27-1338): as above

18F1: human anti-VEGFR-1 monoclonal antibody clone; VL SEQ ID NO: 16, VH SEQ ID NO: 20 [Clone 18F1]
PlGF or VEGF-stimulated phosphorylation of VEGFR-I (VEGFR-I [1]): significantly reduced; also recorded: inhibition | binding reactivity with PAE-VEGFR-I expressing cells [2]: binding reactivity | PlGF-stimulated phosphorylation of VEGFR-I (VEGFR-I [3]): significantly reduced; also recorded: reduction | tumor growth of the MDA-MB-231 xenograft (MDA-MB-231 xenograft; 0.5 or 1 mg per dose three times each week, ANOVA p<0.05, FIG. 20B): statistically significant suppression | growth of MDA-MB-231 xenograft tumors (MDA-MB-231 xenograft; Example 9, intraperitoneal, p<0.05): significantly (p<0.05) suppressed | tumor growth inhibition, MDA-MB-231 xenograft (MDA-MB-231 xenograft; Example 11, p<0.05, FIG. 28A): significant tumor growth inhibition | Akt phosphorylation (MDA-MB-231 xenografts; [4]): significant decrease | apoptosis as measured by TUNEL positive events (MDA-MB-231 xenografts; [4]): increase | activation of MAPK (MDA-MB-231 xenografts; [5]): marked decrease | marker for proliferating cells (Ki-67) (MDA-MB-231 xenografts; [5]): significantly reduced

From patent US8143025B2, “Antibodies against vascular endothelial growth factor receptor-1” (ImClone LLC, priority 2004, dated 2012)
